Consider five compounds from patent publication US5716945A, “Vitamin D analogues” (Leo Pharmaceutical Products Ltd. A/S (L.o slashed.vens …, priority 1993, dated 1998).

A value given as a limit tells only on which side of the number the result lay.

One data set deals with interleukins. As to conditions: Muller, K. et al. (1988); cited from earlier work.
The subject of data set [1] is sebaceous glands in the ears of male Syrian hamsters. The conditions noted are these: topical application, Malloy, V. L. et al. (1989); cited from earlier work.
A further data set has as its system cells. As to conditions: Abe, E. et al. (1981); cited from earlier work.
A further data set concerns calcium metabolism. Briefly: calciuric effect in rats relative to 1α,25(OH)2 D3 (calcium metabolism). It counts as in vivo. The conditions noted are these: number smaller than 1 = less change in calcium excretion. An excerpt:
^b This test determines the calciuric effect in rats of the compound
relative to 1α,25(OH)2 D3. A number smaller than 1
indicates less change in calcium excretion of the compound in question
when compared to 1α,25(OH)2 D3. The test was, as above,
performed exactly as described: L. Binderup and E. Bramm, Biochem.

Data set [2] concerns U937 human histiocytic leukemia cells. Briefly: antiproliferative effect in U937 human histiocytic leukemia cells relative to 1α,25(OH)2 D3. It counts as cell-based. The conditions noted are these: number greater than 1 = higher antiproliferative activity. As to the method: ^a This test determines the antiproliferative effect in U937 human
histiocytic leukemia cells of the compound relative to
1α,25(OH)2 D3. A number greater than 1 indicates a higher
antiproliferative activity of the compound in question when compared to
1α,25(OH)2 D3. The test was performed exactly as
described: L. Binderup and E. Bramm, Biochem. Pharmacol., 37, (1988)

A short description of data set [3]: acid stability: approximate half life in conc. ^2 HCl/^2 H2 O in C^2 H3 CN determined by ^1 H NMR. It counts as physicochemical. As to conditions: dcl/d2o in cd3cn; 10 μl conc. ^2 HCl/^2 H2 O in C^2 H3 CN (0.6 ml), 25° C., ^1 H NMR at 500 MHz. The procedure:
| ^c In this test, the compound was treated with a mixture of 10 μl | conc. ^2 HCl/^2 H2 O in C^2 H3 CN (0.6 ml) at | 25° C. and the approximate half life was determined by ^1 H NM | at 500 MHz.

As to `C=C1/C(=C\C=C2/CCC[C@]3(C)[C@@H]([C@H](C)CCCC(C)(C)O)CC[C@@H]23)C[C@@H](O)C[C@@H]1O` [1,25(OH)2 D3, 1α,25-dihydroxy-vitamin D3], the “effects and/or production of interleukins” value in the data set with interleukins is “influences the effects and/or production of interleukins”. The “size of sebaceous glands” value in data set [1] is on record as “reduces the size of sebaceous glands”. Further, the “cell differentiation and proliferation” value with cells was “able to stimulate the differentiation of cells and inhibit excessive cell proliferation”.
With `C=C1/C(=C\C=C2/CCC[C@]3(C)[C@@H]([C@H](C)/C=C/[C@@H](O)C4CC4)CC[C@@H]23)C[C@@H](O)C[C@@H]1O` [Calcipotriol], the “Calcium metabolism (calciuric effect)” value in the data set with calcium metabolism is 0.005. Besides, in data set [2], the “U937, inhib. of prolifer.” value came out at 1.
The like results for `C=C1/C(=C\C=C2/CCC[C@]3(C)[C@@H]([C@H](C)/C=C/C#CC(O)(CC)CC)CC[C@@H]23)C[C@@H](O)C[C@@H]1O` [Compound 101, 1(S),3(R)-Dihydroxy-20(R)-(5-ethyl-5-hydroxy-hept-1(E)-en-3-yn-1-yl)-9,10-seco-pregna-5(Z),7(E),10(19)-triene] were, in that order, 0.2 and 89.
In general, half-life refers to the time in which the quantity being followed falls by half. Low values mean rapid decline, high ones slow decline. As to `C=C1/C(=C\C=C2/CCC[C@]3(C)[C@@H]([C@@H](C)/C=C/C#CC(O)(CC)CC)CC[C@@H]23)C[C@@H](O)C[C@@H]1O` [Compound 102, 1(S),3(R)-Dihydroxy-20(S)-(5-ethyl-5-hydroxy-hept-1(E)-en-3-yn-1-yl)-9,10-seco-pregna-5(Z),7(E),10(19)-triene], the “Calcium metabolism (calciuric effect)” value with calcium metabolism is 0.015. In data set [3], this compound had a half-life of 15 to 30 min. The “U937, inhib. of prolifer.” value in data set [2] is given as 1.1.
Turning to `C=C1/C(=C\C=C2/CCC[C@]3(C)[C@@H]([C@H](C)/C=C/C=C/C(O)(CC)CC)CC[C@@H]23)C[C@@H](O)C[C@@H]1O` [EB1089, 1(S),3(R)-Dihydroxy-20(R)-(5'-ethyl-5'-hydroxy-hepta-1' (E),3'(E)-dien-1'-yl)-9,10-secopregna-5(Z),7(E), 10(19)-triene], the “Calcium metabolism (calciuric effect)” value with calcium metabolism amounted to 0.4. Further, the half-life in data set [3] was less than 5 min. In addition, the “U937, inhib. of prolifer.” value in data set [2] was 68.
